{"source": "patent US20240299486A1", "about": "“ADDRESSING INJECTION SITE REACTIONS ASSOCIATED WITH THE ADMINISTRATION OF ELAMIPRETIDE” (STEALTH BIOTHERAPEUTICS INC., priority 2022, published 2024)", "key": {"[1]": {"system": "wild type and Mrgprb2 knockout mice", "description": "Adult mice up to 8 months of age were anesthetized with an intraperitoneal injection of ketamine/xylazine. Fifteen (15) minutes after induction of anesthesia, mice were injected intravenously with 50 μL of 12.5 mg/mL Evans Blue in saline. Five (5) minutes later, 5 μL of 0.5 mg/mL elamipretide (in saline) was administered by injection in one paw and saline was administered in the other paw. Fifteen (15) minutes later, mice were sacrificed by decapitation. Paw tissue was collected, dried for 24 hours at 50° C., and weighed. Evans Blue was extracted by a 24-hour incubation in formamide at 50° C., and the optical density (O.D.) was read at 600 nm (the maximum Evans Blue absorbance) and 740 nm (the minimum specific Evans Blue absorbance) using a spectrophotometer. The value at 740 nm, reflecting Evans Blue-independent O.D., was subtracted from the value at 600 nm to attain the final readout.\nInjection site reactions were characterized by local inflammation and edema. The standard assay in mice to monitor local skin inflammation is the Evans Blue assay. In conditions of local skin inflammation, blood vessels become more permeable and components of blood leak out into the local tissue. Evans Blue is a dye that binds to a protein called albumin in the blood and leaks out with the albumin in inflammatory conditions. In this assay, mice were injected intravenously with Evans Blue and the amount of Evans Blue leakage in a tissue was a readout of the extent of inflammation. […] This is preferable to other skin sites in mice, as they are extremely thin, compared to human skin, and injected fluids almost immediately leave the sites of injection."}, "MRGPRX2 receptor": {"biological_target": "T1, MRGPRX2 receptor (Homo sapiens, UniProt Q96LB1)", "T1 construct": "host or cells: Chem-1 cells (G418-selected)", "T1 sequence (Q96LB1 1-330)": "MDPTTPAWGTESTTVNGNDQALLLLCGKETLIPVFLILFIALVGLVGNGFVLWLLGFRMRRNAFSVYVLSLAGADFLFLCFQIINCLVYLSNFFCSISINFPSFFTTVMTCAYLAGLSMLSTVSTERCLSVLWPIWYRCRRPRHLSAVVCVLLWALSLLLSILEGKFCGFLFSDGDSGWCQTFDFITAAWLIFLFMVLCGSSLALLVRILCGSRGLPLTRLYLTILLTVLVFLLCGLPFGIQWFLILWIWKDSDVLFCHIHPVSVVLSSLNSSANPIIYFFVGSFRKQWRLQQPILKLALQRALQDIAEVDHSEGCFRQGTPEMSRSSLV", "test": "Fluo-4 calcium assay in MRGPRX2 expressing Chem-1 cells", "type": "cell-based", "conditions": "Chem-1 cells, Fluo-4"}, "untransfected cells": {"system": "untransfected cells", "test": "Fluo-4 calcium assay in untransfected HEK293 cells", "type": "cell-based, human", "conditions": "untransfected cells (data not shown)"}, "[2]": {"system": "Mouse primary peritoneal mast cells", "test": "Mast cell activation (Fluo-4 calcium imaging)", "type": "cell-based", "conditions": "500 micrograms/mL elamipretide", "description": "Mouse primary peritoneal mast cells were isolated from wild type and Mrgprb2 knockout mice. Mast cells were incubated in Dulbecco's Modified Eagle Medium, supplemented with 10% fetal bovine serum and 100 ng/mL human stem cell factor for 2 hours in wells of a glass-bottom 96 well plate that had been previously coated with fibronectin. […] A confocal fluorescence microscope was used to assess changes in free intracellular calcium levels in each mast cell in a visual field, as measured by changes in Fluo-4 fluorescence using a standard FITC filter, reflecting responsiveness to elamipretide. Cells were identified as responding if the Fluo-4 signal rose by at least 50% for at least 10 seconds, which clearly distinguishes a ligand-induced response from random flickering events.\nInjection site reactions induced by several classes of drugs were mediated in mice by Mrgprb2-dependent activation of mast cells. Whether elamipretide activated primary mouse connective tissue mast cells was evaluated, and if so, it was evaluated whether this was Mrgprb2-dependent. […] Briefly, primary connective tissue mast cells were purified from mice, loaded with Fluo-4, and changes in fluorescence after elamipretide exposure were imaged. T fluorescence of over 200 individual mast cells, each from wild type and Mrgprb2 knockout mice, were monitored and the percentage of total cells that responded was determined."}, "mouse ortholog Mrgprb2": {"biological_target": "mouse ortholog Mrgprb2 (Mus musculus, UniProt Q3KNA1)", "sequence (Q3KNA1 whole entry)": "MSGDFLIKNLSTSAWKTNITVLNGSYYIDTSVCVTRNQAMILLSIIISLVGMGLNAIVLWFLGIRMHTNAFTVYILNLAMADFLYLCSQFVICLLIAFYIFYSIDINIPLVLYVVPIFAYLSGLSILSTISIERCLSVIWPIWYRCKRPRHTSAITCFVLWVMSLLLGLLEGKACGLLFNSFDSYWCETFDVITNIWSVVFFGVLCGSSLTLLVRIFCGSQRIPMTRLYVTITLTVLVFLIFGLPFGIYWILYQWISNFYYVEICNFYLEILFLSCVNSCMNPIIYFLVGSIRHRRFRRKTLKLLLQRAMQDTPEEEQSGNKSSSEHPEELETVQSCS", "conditions": "HEK293 cells transfected with mouse ortholog Mrgprb2", "description": "(§1) A clonal HEK293 cell line stably expressing human MRGPRX2 and Galpha15 was used for the assay, which was performed using a fluorescent plate reader. Cells were plated at 40,000 cells per well in a glass-bottom 96 well plate 20 hours before the assay. Cells were loaded with N-[4-[6-[(Acetyloxy)methoxy]-2,7-difluoro-3-oxo-3H-xanthen-9-yl]-2-[2-[2-[bis[2-[(acetyloxy)methoxy]-2-oxoethyl]amino]-5-methylphenoxy]ethoxy]phenyl]-N-[2-[(acetyloxy)methoxy]-2-oxoethyl]glycine (acetyloxy)methyl ester (Fluo-4 AM) for 45 minutes at 37° C. and allowed to rest for 30 minutes before use. Baseline fluorescence was calculated as the average of a 30 second read, with data points taken at 5 second intervals. Response was defined as the maximum signal within 90 seconds after addition of elamipretide, subtracted by the baseline fluorescence signal. Concentrations were tested in duplicate and the assay was run 6 times. The curve was calculated as a four-parameter non-linear fit with variable slope. Traces were obtained using the same cell line and same Fluo-4 AM loading protocol but were imaged using a fluorescence microscope using a standard fluorescein isothiocyanate (FITC) filter. Fluorescence for different cells was calculated using region of interest selections.\nA calcium-based readout of receptor activity was used to determine whether elamipretide activates human MRGPRX2 and its mouse ortholog Mrgprb2. […]"}, "human MRGPRX2": {"biological_target": "human MRGPRX2 (Homo sapiens, UniProt Q96LB1)", "test": "cell-based", "description": "as §1\nA calcium-based readout of receptor activity was used to determine whether elamipretide activates human MRGPRX2 and its mouse ortholog Mrgprb2. This assay is known to be widely used in drug screening and utilized a cell line stably transfected with the receptor along with Galpha15, a promiscuous G protein that couples to the receptor and induced an increase in intracellular calcium when the receptor was activated. Thus, an increase in calcium levels reflected receptor activation. Calcium levels were detected by imaging Fluo-4 (from Fluo-4 AM), a dye that increases in fluorescence when bound to calcium."}}, "data": [{"smiles": "Cc1cc(O)cc(C)c1C[C@H](NC(=O)[C@H](N)CCCNC(=N)N)C(=O)N[C@@H](CCCCN)C(=O)N[C@@H](Cc1ccccc1)C(N)=O", "note": "(stereo in doubt) [Elamipretide, H-D-Arg-2′,6′Dmt-Lys-Phe-NH2]", "values": [{"measurement": "reduction of Evans Blue accumulation in footpads in Mrgprb2 knockout mice", "setting": "[1]; 0.5 mg/mL elamipretide, knockout vs wild type", "value": 80, "unit": "%"}, {"measurement": "Evans Blue accumulation in footpads", "setting": "[1]; Mrgprb2 knockout mice, 0.5 mg/mL elamipretide", "value": "almost no Evans Blue accumulation"}, {"measurement": "Evans Blue labeling in footpads", "setting": "[1]; wild type mice, 5 μL of 0.5 mg/mL elamipretide injected in paw, vs saline", "value": "strong Evans Blue labeling"}, {"measurement": "activation of the MRGPRX2 expressing cells (calcium mobilization)", "setting": "MRGPRX2 receptor", "value": "dose dependent activation"}, {"measurement": "Fluo-4 fluorescence after elamipretide exposure", "setting": "untransfected cells", "value": "not in untransfected cells"}, {"measurement": "intracellular calcium response of mast cells", "setting": "[2]; mast cells from Mrgprb2 knockout mice", "value": "almost no responses"}, {"measurement": "intracellular calcium response of mast cells", "setting": "[2]; wild-type mast cells", "value": "Robust increases in intracellular calcium"}, {"measurement": "Fluo-4 fluorescence after elamipretide exposure", "setting": "mouse ortholog Mrgprb2", "value": "increased"}, {"measurement": "EC50", "setting": "human MRGPRX2", "value": 98.5, "unit": "µM"}, {"measurement": "EC50 relative to the typical elamipretide injection concentration of 40 mg/mL (times lower)", "setting": "human MRGPRX2", "value": "~600", "unit": "times"}, {"measurement": "Fluo-4 fluorescence after elamipretide exposure", "setting": "human MRGPRX2; HEK293 cells transfected with MRGPRX2", "value": "increased"}]}]}
